Results taken from US20250243218A1, “NOVEL CARBAMATE COMPOUND AND USE THEREOF” (CHENGDU SHIBEIKANG BIOMEDICAL TECHNOLOGY CO., LTD., priority 2022, published 2025).
Structures can show the parent of a compound that is named as a salt.

Columns and labels:
[1] = molecular target: T1, hERG potassium channel (Homo sapiens, UniProt Q12809); experiment: cell-based; settings: IC50 (μM), inhibition of cardiac hERG potassium channel, manual patch-clamp, stably overexpressed hERG channel
T1 construct: expressed in transfected cells
From the text: Test Example 2: Effect of Compounds on Current in Stably Overexpressed hERG Channel

[2] = tested on: ADP-induced platelet aggregation in rats; experiment: Antiplatelet aggregation effect: ADP-induced platelet aggregation in PRP of rats after iv administration; type: in vivo; settings: single iv at the same molar dose, blood 3 h after administration, ADP final 20 μM
From the text: 1. Test objective: Evaluation and comparison of the antiplatelet aggregation treatment effect of each compound after administration at the same molar amount
70 rats were randomly and evenly grouped into 7 groups, i.e., solvent control group, comparative example 1 (2-Oxo-clopidogrel) group, comparative example 2 (Vicagrel) group, compound 1 group, compound 2 group, compound 7 group and compound 8 group.
Rats were anesthetized by intraperitoneal injection of 1.5% sodium pentobarbital.
The anesthetized animals were transferred to an operating platform.
The rats were injected with anesthetic, and fixed on the operating platform in a supine position after the whole body of the rat became soft. After routine disinfection, the abdomen of the rat was incised along the abdominal midline using surgical scissors to open the abdominal cavity. The adipose tissue around the blood vessels was gently separated with a small forceps, and the excess adipose tissue covering the blood vessels was then wiped and removed with the cotton ball to make the blood vessels clearly visible (the abdominal aorta is located anterior to the vertebral column, and the abdominal vein appears thicker and darker in color than the abdominal aorta). The blood vessel was first fixed to prevent it from moving as much as possible. The left thumb and index finger fixed the adipose tissue and other organs on both sides of the blood vessel, while the ring finger pressed on the blood vessel at the upper end of the needle insertion point to lower the blood pressure, which can prevent blood spurting. The puncture needle was held with the right hand, with the bevel of the needle tip facing downward. The needle was inserted at an angle of about 30 degrees and advanced towards the heart to a suitable depth of about 5 mm. Once the blood had started to enter the needle via its tip, the other end of the blood collection needle was inserted into the vacuum tube. After the insertion of needle, the needle tip could be clamped with a hemostatic clip to prevent it from puncturing the blood vessel if the rat struggled due to insufficient anesthesia.
Three hours after the administration, the rats were anesthetized with sodium pentobarbital. Then blood was collected from the abdominal aorta, added with 3.8% sodium citrate (1:9) as an anticoagulant, mixed evenly and centrifuged at 200 g for 10 min. The supernatant was harvested to obtain the platelet-rich plasma (PRP), and the residual plasma was then centrifuged at 1600 g for 15 min to obtain the resulting supernatant as platelet-poor plasma (PPP).
Platelet aggregation rate was measured using a platelet aggregometer (model: Agg RAM, Helena, USA). The PPPs corresponding to the PRPs to be tested in each channel were first used to correct the light transmission, and the PPPs were removed after the correction. A cuvette added with 225 μl of PRP to be tested was then placed in each channel, and added with a stirrer, then ADP (with a final concentration of 20 μM). The platelet aggregometer immediately began to measure the platelet aggregation rate.

[3] = Solubility study; type: physicochemical; settings: 25° C. to 30° C.
Experimental: Samples of the example compound 2 and comparative example 2 (Vicagrel) were accurately weighed. Under the condition of 25° C. to 30° C., 1 ml of physiological saline and 1 ml of a buffer (pH 1.2) were taken, and added with 10 mg of each compound, respectively. The compound 2 of the present disclosure had excellent solubility, which can satisfy the demand for the formulation into an injection with an effective concentration in clinical, while the solubility of the comparative example 2 was extremely low and it cannot satisfy the demand for injection, and the addition of additional solubilizer may pose potential safety risks.

[4] = Influencing factor test (high temperature, high humidity, light); type: physicochemical; settings: high temperature (60° C.), two days
Experimental: Test Methods: The samples of the compound 2 and comparative example 2 (Vicagrel) were weighed and placed in weighing bottles, respectively, and the weighing bottles were placed under the conditions of high temperature (60° C.), high humidity (RH 80%), and light (5000 Lux), respectively.

[5] = Pharmacokinetic study in SD rats, 2-Oxo-clopidogrel in plasma by LC/MS/MS; type: in vivo; settings: SD, rat, in vivo
From the text: After being administered via single gavage at the same molar amount, the pharmacokinetic characteristics of each compound were investigated, and the main pharmacokinetic parameters were compared.
Each test compound was accurately weighed separately into a clean drug container, dissolved with appropriate amount of Solutol, shaken by vortex, added with purified water, ultrasonicated, and shaken by vortex until the compound was completely dissolved. All the formulations were freshly prepared on the day of administration.
Thirty healthy adult SD rats were administered via gavage.
Grouping and Fasting: SD rats were randomly grouped, with 6 rats per group, and administered with the corresponding compounds via gavage according to Table 3.
Sample Collection and Processing: 0.2 ml of blood was collected at different time points of before (0 h) and 5 min, 15 min, 30 min, 1 h, 2 h, 4 h, 8 h, and 24 h after the administration. After the anticoagulation with EDTA-K2 was completed, the blood was centrifuged at 4° C. for 5 min, and then the plasma was separated and stored at −80° C. for later measurement.
Measurement: The blood drug concentration of 2-Oxo-clopidogrel in all PK plasma samples was measured by LC/MS/MS method, and the pharmacokinetic parameters of individual compounds were calculated by using software WinNonlin 7.2.

T1 sequence (Q12809 whole entry): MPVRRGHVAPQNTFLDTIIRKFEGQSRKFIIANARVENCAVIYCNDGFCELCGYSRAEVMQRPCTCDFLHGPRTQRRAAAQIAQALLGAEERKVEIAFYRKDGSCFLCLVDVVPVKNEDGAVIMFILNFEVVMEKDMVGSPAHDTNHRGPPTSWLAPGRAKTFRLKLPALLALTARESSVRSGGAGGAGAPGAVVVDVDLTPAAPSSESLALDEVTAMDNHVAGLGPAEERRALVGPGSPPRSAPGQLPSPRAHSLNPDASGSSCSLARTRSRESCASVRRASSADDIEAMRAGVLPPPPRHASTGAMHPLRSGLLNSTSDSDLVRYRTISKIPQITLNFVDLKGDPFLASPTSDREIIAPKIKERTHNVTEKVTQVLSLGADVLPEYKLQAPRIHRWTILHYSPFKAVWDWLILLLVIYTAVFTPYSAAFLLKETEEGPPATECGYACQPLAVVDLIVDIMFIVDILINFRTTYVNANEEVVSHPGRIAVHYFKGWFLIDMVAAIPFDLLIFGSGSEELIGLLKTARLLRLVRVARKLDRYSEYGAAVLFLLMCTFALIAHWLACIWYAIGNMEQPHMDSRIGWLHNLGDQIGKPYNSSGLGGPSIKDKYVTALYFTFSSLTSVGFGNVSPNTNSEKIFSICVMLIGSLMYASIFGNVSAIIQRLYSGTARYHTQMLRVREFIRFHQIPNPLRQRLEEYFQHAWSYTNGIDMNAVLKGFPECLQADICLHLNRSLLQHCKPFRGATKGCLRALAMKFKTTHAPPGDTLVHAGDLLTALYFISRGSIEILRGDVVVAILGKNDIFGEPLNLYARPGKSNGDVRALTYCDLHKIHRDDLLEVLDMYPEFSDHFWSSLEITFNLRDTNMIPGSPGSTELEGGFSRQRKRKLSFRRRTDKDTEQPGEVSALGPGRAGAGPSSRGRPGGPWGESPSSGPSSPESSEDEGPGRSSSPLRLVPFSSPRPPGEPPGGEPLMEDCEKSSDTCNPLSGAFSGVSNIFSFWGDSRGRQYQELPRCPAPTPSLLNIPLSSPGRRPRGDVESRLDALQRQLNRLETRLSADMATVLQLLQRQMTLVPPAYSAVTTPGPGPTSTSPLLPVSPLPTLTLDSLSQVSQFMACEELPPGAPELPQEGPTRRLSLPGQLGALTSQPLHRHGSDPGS

Row | Structure (SMILES) | IC50 [1] | Platelet aggregation rate (%) ([2]; solvent control 76.06 ± 3.29) | also measured
1 | COC(=O)[C@H](c1ccccc1Cl)N1CCc2sc(OC(=O)N3CCN(C)CC3)cc2C1 [Compound 1, (S)-5-(1-(2-chlorophenyl)-2-methoxy-2-oxyethyl)-4,5,6,7-tetrahydrothieno[3,2-c]pyridin-2-yl 4-methylpiperazine-1-carboxylate] | 20.5 µM | 24.08 ± 6.00 % | Platelet aggregation rate (%) ([2]; solvent control 76.06 ± 3.29, listed as compound 1): 24.08±6.00%
2 | CCCN1CCN(C(=O)Oc2cc3c(s2)CCN([C@H](C(=O)OC)c2ccccc2Cl)C3)CC1 [Compound 3, (S)-5-(1-(2-chlorophenyl)-2-methoxy-2-oxyethyl)-4,5,6,7-t etrahydrothieno[3,2-c]pyridin-2-yl-4-propylpiperazine-1-carboxylate] | 15.2 µM |  | 
3 | COC(=O)[C@H](c1ccccc1Cl)N1CCc2sc(OC(=O)N3CCC(N4CCCCC4)CC3)cc2C1 [Compound 8, (S)-5-(1-(2-chlorophenyl)-2-methoxy-2-oxyethyl)-4,5,6,7-t etrahydrothieno[3,2-c]pyridin-2-yl [1,4′-bipiperidine]-1′-carboxylate hydrochloride] | 27.3 µM |  | Platelet aggregation rate (%) ([2]; solvent control 76.06 ± 3.29, hydrochloride): 27.13 ± 6.50 %
4 | COC(=O)[C@H](c1ccccc1Cl)N1CCc2sc(OC(=O)N3CCC(N4CCN(C)CC4)CC3)cc2C1 [Compound 10, (S)-5-(1-(2-chlorophenyl)-2-methoxy-2-oxyethyl)-4,5,6,7-tetrahydrothieno[3,2-c]pyridin-2-yl-4-(4-methylpiperazine-1-yl) piperidine-1-carboxylate] | 25.9 µM |  | 
5 | COC(=O)[C@H](c1ccccc1Cl)N1CCc2sc(OC(=O)N3CCN(C4CC4)CC3)cc2C1 [Compound 4, (S)-5-(1-(2-chlorophenyl)-2-methoxy-2-oxyethyl)-4,5,6,7-tetrahydrothieno[3,2-c]pyridin-2-yl 4-cyclopropylpiperazine-1-carboxylate] | 16.4 µM |  | 
6 | COC(=O)[C@H](c1ccccc1Cl)N1CCc2sc(OC(=O)N3CCC(C4CCN(C)C4)CC3)cc2C1 (stereo partly drawn) [Compound 9, 5-((S)-1-(2-chlorophenyl)-2-methoxy-2-oxyethyl)-4,5,6,7-tetrahydrothieno[3,2-c]pyridin-2-yl-4-(1-methylpyrrolidine-3-yl) piperidine-1-carboxylate] | 27.2 µM |  | 
7 | COC(=O)[C@H](c1ccccc1Cl)N1CCc2sc(OC(C)=O)cc2C1 [Comparative Example 2, Vicagrel, reference compound] |  | 39.32 ± 12.38 ^ % | Solubility, pH 1.2 buffer ([3]; 10 mg compound added to 1 ml buffer (pH 1.2)): < 0.5 mg/mL; Solubility, Physiological saline(1 ml) ([3]; 10 mg compound added to 1 ml physiological saline): insoluble; Platelet aggregation rate (%) ([2]; solvent control 76.06 ± 3.29, listed as comparative example 2): 39.32±12.38%; change in appearance and characteristics [4]: from a white solid to a yellowish-brown oil
8 | COC(=O)[C@H](c1ccccc1Cl)N1CCc2sc(OC(=O)N3CCN(C4CCCC4)CC3)cc2C1 [Compound 5, (S)-5-(1-(2-chlorophenyl)-2-methoxy-2-oxyethyl)-4,5,6,7-tetrahydrothieno[3,2-c]pyridin-2-yl 4-cyclopentylpiperazine-1-carboxylate] | 15.8 µM |  | 
9 | COC(=O)[C@H](c1ccccc1Cl)N1CCc2sc(OC(=O)N3CCC(N4CCCCC4)CC3)cc2C1 [Compound 7, (S)-5-(1-(2-chlorophenyl)-2-methoxy-2-oxyethyl)-4,5,6,7-tetrahydrothieno[3,2-c]pyridin-2-yl [1,4′-bipiperidine]-1′-carboxylate] | 25.4 µM | 27.59 ± 6.99 % | Platelet aggregation rate (%) ([2]; solvent control 76.06 ± 3.29, listed as compound 7): 27.59±6.99%
10 | COC(=O)[C@H](c1ccccc1Cl)N1CCc2sc(OC(=O)N3CCN(C4CCCCC4)CC3)cc2C1 [Compound 6, (S)-5-(1-(2-chlorophenyl)-2-methoxy-2-oxyethyl)-4,5,6,7-tetrahydrothieno[3,2-c]pyridin-2-yl 4-cyclohexylpiperazine-1-carboxylate] | 14.9 µM |  | 
11 | COC(=O)[C@H](c1ccccc1Cl)N1CCC2SC(=O)C=C2C1 (stereo partly shown) [Comparative Example 1, 2-Oxo-clopidogrel, reference compound] |  | 31.32 ± 6.07 ^ % | Platelet aggregation rate (%) ([2]; solvent control 76.06 ± 3.29, listed as comparative example 1): 31.32±6.07%; AUC0-last [5]: 60.15 ± 14.22 ng·h/mL; Cmax [5]: 38.48 ± 13.51 ng/mL; T1/2 [5]: 70.8 ± 12.6 min; Tmax [5]: 37.8 ± 9 min
